Experimental findings from US20090239884A1, “Methods of Treating Inflammation” (priority 2006, published 2009) are described below.

The test system of test [1] is Con A-activated splenocytes on TNF-α activated bEnd.3 endothelial cells. Kind of test: T cell-endothelial cell adhesion assay (Example 13). The format is cell-based, mouse. The procedure: Cell treatment. Confluent bEnd.3 monolayers were incubated with 200 ng/ml TNF-α (Peprotech, Rocky Hill, N.J.) at 37° c. for 2 hours. […] Christoff Zitt and Armin Hatzelmann (Altana Pharma, Konstanz, Germany). Con A-activated splenocytes or CD4^+CD25^− T cells activated with plate-bound anti-CD3 mAb were treated with the same reagents for 20, 45, or 90 minutes.
Adhesion assays. Adhesion assays were performed in 24-well plates with a confluent layer of bEnd.3 cells. Splenocytes or CD4^+CD25^− T cells were labeled with 5 μM Calcein AM (Molecular Probes, Eugene, Oreg.) and treated as described above. 7×10^5 pretreated splenocytes or CD4^+CD25^− T cells per well were incubated on bEnd.3 cells in RPMI media. After 30 minutes at 37° C., non-adherent cells were removed by washing with D-PBS. For analysis, 7×10^5 Calcein AM labeled splenocytes or CD4^+CD25^− T cells were used as positive controls. Fluorescence was read in a Victor 3v microplate reader (Perkin Elmer, Waltham, Mass.) with a fluorescein filter set. The percentage of adherent T cells, i.e. labeled cells resistant to detachment, was calculated as total fluorescence of well divided by fluorescence of 7×10^5 Calcein AM labeled cells multiplied by 100.
In FIGS. 20A-20B, splenocytes from C57BL/6 mice were activated with Con A (3 μg/ml) for 48 hours followed by a 45 minute incubation with (A) IBMX (300 μM), piclamilast (Picl, 1 μM) or DP (100 μM), (B) dibutryl cAMP (Db-cAMP, 500 μM) or DP in the presence or absence of adenosine deaminase (AD, 1 U/ml) or vehicle (0.1% DMSO). bEnd.3 endothelial cells were activated for 2 hours with TNF-α (200 ng/ml) and incubated with the same reagents for the final 45 minutes before splenocytes were added to the bEnd.3 cells for the adhesion assay. The data are presented as the mean±SEM percentage of splenocytes which were resistant to detachment. Results are representative of at least three independent experiments run in triplicate (*p<0.05, **p<0.001; one way ANOVA followed by Bonferroni t-test).

The subject of another test is CD4+CD25− T cells. Kind of test: qRT-PCR of PDE and cytokine genes in anti-CD3 activated CD4+CD25− T cells. The test is classed as cell-based, mouse. Conditions: for changes in PDE gene expression: 20 minutes; for changes in PDE gene expression / increase of PDE4B gene expression: IBMX 300 μM; for PDE3B, 7A, and 8A expression: after DP and IBMX treatment. The procedure:
Cell Culture. Mouse splenocytes were prepared and cultured as described. (Dong H, Osmanova V, Epstein P M, Brocke S. Phosphodiesterase 8 (PDE8) regulates chemotaxis of activated lymphocytes. Biochem Biophys Res Commun. 2006; 345:713-719) […] were separated from CD4^+CD25^+ Treg cells using a CD4^+CD25^+ Regulatory T Cell Isolation Kit (Miltenyi Biotec, Auburn, Calif.) and activated for 18 hours on plate-bound anti-CD3 mAb (5 μg/ml). Cells of the murine brain endothelium-derived cell line bEnd.3 (ATCC, Manassas, Va.) were seeded into 24-well plates (Costar, Cambridge, Mass.) in DMEM supplemented with 100 U/ml penicillin, […] streptomycin, 2 mM LGlutamine, and 10% fetal bovine serum (all Gibco, Carlsbad, Calif.). bEnd.3 assays were performed on confluent bEnd.3 monolayers.
Quantitative real-time RT-PCR analysis. 10 ng cDNA, or 2 μl cDNA for LCM studies, was amplified by qRT-PCR in a 25 μl reaction using SYBR Green PCR Master Mix (Applied Biosystems, Foster City, Calif.). Primers were designed using Primer Express software v3.0 and primer efficiency verified by slope analysis to be 100%±2.5%. qRT-PCR was performed using an ABI 7500 fast system and data analyzed using the Δ^ct method (SDS software v3.0). Amplicon sizes were approximately 100 bp.
Cell treatment. Confluent bEnd.3 monolayers were incubated with 200 ng/ml TNF-α (Peprotech, Rocky Hill, N.J.) at 37° c. for 2 hours. […] The selective PDE3 and PDE4 inhibitors motapizone and piclamilast were supplied by Drs. Christoff Zitt and Armin Hatzelmann (Altana Pharma, Konstanz, Germany). Con A-activated splenocytes or CD4^+CD25^− T cells activated with plate-bound anti-CD3 mAb were treated with the same reagents for 20, 45, or 90 minutes.
In FIGS. 21A-21B, purified CD4^+CD25^− T cells were activated with plate-bound anti-CD3 mAb for 18 hours followed by incubation with IBMX (300 μM), DP (100 μM) or vehicle (0.1% DMSO) for (A) 20 or (B) 90 minutes. PDE (A, Bi) and cytokine (Bii) gene expression was then analyzed by qRT-PCR with the data presented as the mean+SEM of triplicate determinations. The results are representative of 2 independent experiments (*p<0.05, **p<0.001; one way ANOVA followed by Bonferroni t-test).

In the case of `OCCN(CCO)c1nc(N2CCCCC2)c2nc(N(CCO)CCO)nc(N3CCCCC3)c2n1` [Dipyridamole, 2,2′,2″,2′″-(4,8-di(piperidin-1-yl)pyrimido[5,4-d]pyrimidine-2,6-diyl)bis(azanetriyl)tetraethanol], the “reduction of adhesion of T cells” value in test [1] (short term, activated endothelial cells (discussion)) is 65%. Further, the “changes in PDE gene expression” value with CD4+CD25− T cells (DP 100 μM) is given as “No significant changes”. Also, in the test with CD4+CD25− T cells (90 minutes, DP 100 μM), the “decrease of IL-2 gene expression” value was found to be 2 fold, the “decrease of TNF-α gene expression” value stood at 3 fold and the “increase of PDE4B gene expression” value is recorded as 8 fold. For the same compound, the “PDE3B, 7A, and 8A expression” value in the test with CD4+CD25− T cells is listed as “unchanged”.

Regarding `CC(C)Cn1c(=O)n(C)c(=O)c2[nH]cnc21` [IBMX, 3-isobutyl-1-methylxanthine], the “ability to reduce adhesion of activated T cells to endothelial cells” value in test [1] (45 minute incubation, IBMX 300 μM, piclamilast 1 μM, motapizone 1 μM) is on record as “neither”. Besides, in the test with CD4+CD25− T cells (DP 100 μM), the “changes in PDE gene expression” value is “No significant changes”. For the same compound, in the test on CD4+CD25− T cells (90 minutes, DP 100 μM), the “increase of PDE4B gene expression” value is recorded as 5 fold. The “PDE3B, 7A, and 8A expression” value in the test with CD4+CD25− T cells is recorded as “unchanged”.
